Assays:
Format in all cases: cell-based, mouse
[1] = test system: α7 integrin (LacZ reporter in α7βgal+/− myoblasts); assay: Myoblast α7+/LacZ integrin FDG assay (Burkin assay in myoblasts, 96-well); settings: α7+/LacZ myoblasts, 96-well
[2] = test system: α7 integrin (LacZ reporter in α7+/LacZ myotubes); assay: Myotube α7 integrin FDG assay (Burkin assay in myotubes, 96-well); settings: myotubes
[3] = test system: β-galactosidase in CMV-LacZ C2C12 myotubes; assay: CMV-LacZ secondary screen in C2C12 myotubes (β-Gal stabilizing assay); settings: for CMV-LACZ in Myotubes, signal relative to DMSO: C2C12 CMV-LacZ myotubes, fold relative to DMSO; for CMV-LACZ in Myotubes (β-galactosidase activity relative to DMSO): CMV-LacZ C2C12 myotubes, 96-well format
Outline: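 β-Gal level was the read-out, measured in a clonal C2C12 line expressing LacZ from a CMV promoter. Dose-response curves used six concentrations, 0.5 μM up to 40 μM, with duplicate points.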

| SMILES | Burkin Assay in Myoblasts, value relative to DMSO ([1]; 0.5 uM) | Burkin Assay in Myoblasts, value relative to DMSO ([1]; 1 uM) | Burkin Assay in Myoblasts, value relative to DMSO ([1]; 5 uM) | Burkin Assay in Myoblasts, value relative to DMSO ([1]; 10 uM) | Burkin Assay in Myoblasts, value relative to DMSO ([1]; 20 uM) | Burkin Assay in Myoblasts, value relative to DMSO ([1]; 40 uM) | Burkin Assay in Myotubes (signal relative to DMSO) ([2]; 0.5 uM) | Burkin Assay in Myotubes (signal relative to DMSO) ([2]; 1 uM) | Burkin Assay in Myotubes (signal relative to DMSO) ([2]; 5 uM) | Burkin Assay in Myotubes (signal relative to DMSO) ([2]; 10 uM) | Burkin Assay in Myotubes (signal relative to DMSO) ([2]; 20 uM) | Burkin Assay in Myotubes (signal relative to DMSO) ([2]; 40 uM) | CMV-LACZ in Myotubes, signal relative to DMSO ([3]; 5 uM) | CMV-LACZ in Myotubes, signal relative to DMSO ([3]; 10 uM) | CMV-LACZ in Myotubes, signal relative to DMSO ([3]; 20 uM) | CMV-LACZ in Myotubes, signal relative to DMSO ([3]; 40 uM) | CMV-LACZ in Myotubes (β-galactosidase activity relative to DMSO) ([3]; 5 uM) | CMV-LACZ in Myotubes (β-galactosidase activity relative to DMSO) ([3]; 10 uM) | CMV-LACZ in Myotubes (β-galactosidase activity relative to DMSO) ([3]; 20 uM) | CMV-LACZ in Myotubes (β-galactosidase activity relative to DMSO) ([3]; 40 uM) | other results |
| --- | --- | --- | --- | --- | --- | --- | --- | --- | --- | --- | --- | --- | --- | --- | --- | --- | --- | --- | --- | --- | --- |
| CCCS(=O)(=O)N1CCCC(C(=O)c2cccc(Cl)c2)C1 (centres unmarked) [MLS000862690-01] | 1.029 | 1.027 | 1.009 | 1.004 | 0.8717 | 0.9753 | 1.125 | 0.9576 | 0.5941 | 0.9481 | 1.0131 | 1.0763 | 0.8684 | 0.8943 | 0.9323 | 1.018 |  |  |  |  |  |
| Cc1ccccc1C(=O)Nc1nnc(SC(C)C)s1 [MLS000683174-01] | 1.02 | 0.9176 | 1.02 | 1.014 | 1.028 | 0.8059 | 1.145 | 0.9165 | 1.007 | 0.8907 | 1.081 | 0.9864 | 1.156 | 1.0866 | 1.035 | 1.238 |  |  |  |  |  |
| O=C(COC(=O)Cn1cnc2ccccc21)Nc1cccc([N+](=O)[O-])c1 [MLS001005283-01] |  |  |  |  |  |  |  |  |  |  |  |  | 0.9005 | 0.9051 | 1.032 | 1.1425 |  |  |  |  | Burkin Assay in Myoblasts, signal relative to DMSO ([1]; 0.5 uM): 0.8702; Burkin Assay in Myoblasts, signal relative to DMSO ([1]; 1 uM): 0.8582; Burkin Assay in Myoblasts, signal relative to DMSO ([1]; 5 uM): 0.9346; Burkin Assay in Myoblasts, signal relative to DMSO ([1]; 10 uM): 0.8908; Burkin Assay in Myoblasts, signal relative to DMSO ([1]; 20 uM): 0.8965; Burkin Assay in Myoblasts, signal relative to DMSO ([1]; 40 uM): 0.9301; Burkin Assay in Myotubes, α7 integrin LacZ reporter signal relative to DMSO ([2]; 0.5 uM): 0.9811; Burkin Assay in Myotubes, α7 integrin LacZ reporter signal relative to DMSO ([2]; 1 uM): 0.9951; Burkin Assay in Myotubes, α7 integrin LacZ reporter signal relative to DMSO ([2]; 5 uM): 0.8583; Burkin Assay in Myotubes, α7 integrin LacZ reporter signal relative to DMSO ([2]; 10 uM): 0.9141; Burkin Assay in Myotubes, α7 integrin LacZ reporter signal relative to DMSO ([2]; 20 uM): 0.9432; Burkin Assay in Myotubes, α7 integrin LacZ reporter signal relative to DMSO ([2]; 40 uM): 0.7596 |
| CC(=O)c1cccc(NC(=O)C(=O)Nc2cccc3ccccc23)c1 [MLS000765108-01] |  |  |  |  |  |  |  |  |  |  |  |  |  |  |  |  | 1.177 | 1.099 | 0.9927 | 0.97 | fold induction at 0.5 µM ([1]; Mus musculus, Myoblast, 48 h, 0.5 uM, read-out: Burkin Assay in Myoblasts, value relative to DMSO): 1.17; fold induction at 1 µM ([1]; Mus musculus, Myoblast, 48 h, 1 uM, read-out: Burkin Assay in Myoblasts, value relative to DMSO): 1.12; fold induction at 5 µM ([1]; Mus musculus, Myoblast, 48 h, 5 uM, read-out: Burkin Assay in Myoblasts, value relative to DMSO): 1.2; fold induction at 10 µM ([1]; Mus musculus, Myoblast, 48 h, 10 uM, read-out: Burkin Assay in Myoblasts, value relative to DMSO): 1.11; fold induction at 20 µM ([1]; Mus musculus, Myoblast, 48 h, 20 uM, read-out: Burkin Assay in Myoblasts, value relative to DMSO): 1.04; fold induction at 40 µM ([1]; Mus musculus, Myoblast, 48 h, 40 uM, read-out: Burkin Assay in Myoblasts, value relative to DMSO): 1.03; fold induction at 0.5 µM ([2]; Mus musculus, Myotube, 0.5 uM, read-out: Burkin Assay in Myotubes (signal relative to DMSO)): 0.872; fold induction at 1 µM ([2]; Mus musculus, Myotube, 1 uM, read-out: Burkin Assay in Myotubes (signal relative to DMSO)): 1.02; fold induction at 5 µM ([2]; Mus musculus, Myotube, 5 uM, read-out: Burkin Assay in Myotubes (signal relative to DMSO)): 1.06; fold induction at 10 µM ([2]; Mus musculus, Myotube, 10 uM, read-out: Burkin Assay in Myotubes (signal relative to DMSO)): 0.609; fold induction at 20 µM ([2]; Mus musculus, Myotube, 20 uM, read-out: Burkin Assay in Myotubes (signal relative to DMSO)): 0.922; fold induction at 40 µM ([2]; Mus musculus, Myotube, 40 uM, read-out: Burkin Assay in Myotubes (signal relative to DMSO)): 0.707 |
| Cc1cccc(NC(=O)c2ccc(N3C(=O)C4CCCCC4C3=O)cc2)c1C (centres unmarked) [MLS001147727-01] |  |  |  |  |  |  |  |  |  |  |  |  | 1.12 | 0.9069 | 1.2365 | 1.1835 |  |  |  |  | Burkin Assay in Myoblasts, signal relative to DMSO ([1]; 0.5 uM): 1.212; Burkin Assay in Myoblasts, signal relative to DMSO ([1]; 1 uM): 1.039; Burkin Assay in Myoblasts, signal relative to DMSO ([1]; 5 uM): 1.029; Burkin Assay in Myoblasts, signal relative to DMSO ([1]; 10 uM): 0.8892; Burkin Assay in Myoblasts, signal relative to DMSO ([1]; 20 uM): 1.128; Burkin Assay in Myoblasts, signal relative to DMSO ([1]; 40 uM): 0.9044; Burkin Assay in Myotubes, α7 integrin LacZ reporter signal relative to DMSO ([2]; 0.5 uM): 0.9937; Burkin Assay in Myotubes, α7 integrin LacZ reporter signal relative to DMSO ([2]; 1 uM): 0.7877; Burkin Assay in Myotubes, α7 integrin LacZ reporter signal relative to DMSO ([2]; 5 uM): 1.101; Burkin Assay in Myotubes, α7 integrin LacZ reporter signal relative to DMSO ([2]; 10 uM): 0.9716; Burkin Assay in Myotubes, α7 integrin LacZ reporter signal relative to DMSO ([2]; 20 uM): 1.11; Burkin Assay in Myotubes, α7 integrin LacZ reporter signal relative to DMSO ([2]; 40 uM): 0.9652 |
| Cc1cccc(OCc2nc(C#N)c(N3CCCC3)o2)c1 [MLS000332693-01] | 1.04 | 0.9937 | 1.068 | 1.095 | 0.895 | 0.9225 | 1.0441 | 0.9631 | 1.092 | 0.9798 | 0.9709 | 0.9252 |  |  |  |  | 1.244 | 0.9794 | 0.8804 | 0.9304 |  |
| CSc1ncccc1C(=O)OCC(=O)c1cc(C)n(C)c1C [MLS002245351-01] | 1.082 | 1.037 | 1.034 | 0.9704 | 0.9001 | 0.8657 | 1.047 | 0.9463 | 1.107 | 1.042 | 1.061 | 1.031 |  |  |  |  | 0.8306 | 1.001 | 1.009 | 0.9307 |  |
| CCOCCCN1C(=O)CN(C2CCCCCC2)C(=O)C1c1ccc(OC)cc1 (centres unmarked) [MLS000046123-01] | 1.049 | 0.9808 | 0.9565 | 1.007 | 1.002 | 0.9894 | 0.9802 | 0.9389 | 0.8905 | 0.865 | 0.9268 | 0.9203 | 0.9124 | 1.084 | 1.145 | 1.076 |  |  |  |  |  |
